The values that follow come from ChEMBL document CHEMBL3784975 (Bioorg Med Chem Lett, 2016).

Series [1] can be described thus: Cytotoxicity against human A3 cells after 48 hrs by crystal violet staining based assay. It counts as functional, cell-based. The following applies: A3, 48 h.
Series [2] is described as follows: Cytotoxicity against human […] cells after 48 hrs by crystal violet staining based assay. Format: functional, cell-based.
The next series relates to HeLa. As to the kind of experiment: Cytotoxicity against human HeLa cells after 24 hrs by [3H]-thymidine incorporation assay. It counts as functional, cell-based. (In general: Uptake of a labelled nucleoside into DNA is a usual measure of proliferation.)
Series [3] in a line: Cytotoxicity against human IGROV cells after 48 hrs by crystal violet staining based assay. Format: functional, cell-based.
Another series concerns A-431. Kind of series: Cytotoxicity against human A431 cells after 48 hrs by crystal violet staining based assay. It counts as functional, cell-based. The following applies: A-431, 48 h.
Series [4] in a line: Cytotoxicity against human CLL cells after 24 hrs by annexin-V/PI staining based flow cytometry. Format: functional, cell-based.
Series [5] in a line: Cytotoxicity against human SJSA1 cells after 48 hrs by crystal violet staining based assay. It counts as functional, cell-based. The following applies: SJSA-1, 48 h.
The nature of series [6]: Half life of compound in water at 25 deg C. Format: physicochemical.
Series [7] can be described thus: Half life of compound at pH 5. Format: physicochemical.
Series [8] can be described thus: Cytotoxicity against human B cells assessed as cell viability after 24 hrs by annexin V/propidium iodide staining based flow cytometric analysis. Background: Flow cytometry measures light scatter and fluorescence of single cells or particles in a stream.
Series [9] can be described thus: Cytotoxicity against human CLL cells after 24 hrs by annexin-V/PI staining based flow cytometry in presence of human plasma protein. Format: functional, cell-based.
Series [10] is described as follows: Plasma protein binding in human by liquid chromatography-mass spectrometric analysis. Format: ADME, cell-free.
Series [11] can be described thus: Cytotoxicity against human T cells assessed as cell viability after 24 hrs by annexin V/propidium iodide staining based flow cytometric analysis.
The next series concerns Plasma. Kind of series: Metabolic stability in human plasma assessed as drug recovery. It counts as ADME, cell-free.
Series [12] in a line: Cytotoxicity against human CLL cells after 24 hrs by annexin-V/PI staining based flow cytometry in presence of fetal bovine serum. It counts as functional, cell-based.

As usually defined, the IC50 is the concentration needed to halve the response being measured. As usually defined, the half-life is the time needed for the level to fall by half in the phase considered.

`CN1C(=O)N[C@H]2[C@@H]3NC(=O)c4cc(Br)c(Br)n4[C@@H]3C[C@]21O`: the IC50 was more than 1000 nM in [1]; more than 1000 nM in series [2]; 7850 nM with HeLa; more than 1000 nM in series [3]; more than 1000 nM in the series with A-431; more than 30000 nM in [4]. Moreover, the IC50 in [5] was more than 1000 nM.

In turn, `CN1C(=O)N[C@H]2[C@@H]3NC(=O)c4cc(I)c(Br)n4[C@@H]3C[C@]21O` registered an IC50 with HeLa of more than 20000 nM.

For `CC(=O)CCO[C@@]12C[C@@H]3[C@@H](NC(=O)c4ccc(Br)n43)[C@@H]1NC(=O)N2C`, the IC50 with HeLa was found to be 1720 nM; in series [4], 5740 nM. This molecule gave a half-life in [6] of 16 h.

As for `CN1C(=O)N[C@H]2[C@@H]3NC(=O)c4c(Br)c(Br)c(Br)n4[C@@H]3C[C@]21O`, the IC50 in the series on HeLa was more than 20000 nM; in [4], more than 10000 nM.

With `CN1C(=O)N[C@H]2[C@@H]3NC(=O)c4ccc(Br)n4[C@@H]3C[C@]21OCCCc1cn(CCCC(=O)NCc2ccccc2)nn1`, the IC50 with HeLa is more than 20000 nM; in series [4], more than 10000 nM.

On to `CN1C(=O)N[C@H]2[C@@H]3NC(=O)c4cc(C#Cc5ccccc5)c(Br)n4[C@@H]3C[C@]21O`, for which the IC50 with HeLa was more than 20000 nM; in series [4], more than 10000 nM.

For the molecule `CN1C(=O)N[C@H]2[C@@H]3NC(=O)c4cc(-c5ccccc5)c(Br)n4[C@@H]3C[C@]21O`, the IC50 is more than 20000 nM in the series with HeLa and more than 10000 nM in series [4].

Take `CN1C(=O)N[C@H]2[C@@H]3NC(=O)c4ccc(Br)n4[C@@H]3C[C@]21N`: the IC50 with HeLa was 17000 nM; in [4], more than 30000 nM. In addition, the t1/2 in [7] came out at 170 h.

Take `Cc1c(Br)c(Br)n2c1C(=O)N[C@@H]1[C@H]2C[C@]2(O)[C@H]1NC(=O)N2C`: in the series on HeLa, the IC50 was more than 20000 nM.

In the case of `Cc1cc2n(c1Br)[C@@H]1C[C@]3(O)[C@@H](NC(=O)N3C)[C@@H]1NC2=O`, the values for the IC50 (in the series with HeLa; in series [4]) were 4530 nM and 7120 nM, respectively.

For the molecule `CC(=O)c1cc2n(c1Br)[C@@H]1C[C@]3(O)[C@@H](NC(=O)N3C)[C@@H]1NC2=O`, the IC50 in the series with HeLa was more than 20000 nM; in series [4] it was more than 10000 nM.

`CN1C(=O)N[C@H]2[C@@H]3NC(=O)c4cc(-c5ccccc5)c(-c5ccccc5)n4[C@@H]3C[C@]21O`: the IC50 in the series with HeLa was more than 20000 nM; in [4], more than 10000 nM.

Turning to `CN1C(=O)N[C@H]2[C@@H]3NC(=O)c4cc(Cl)c(Br)n4[C@@H]3C[C@]21O`, the IC50 in series [1] was 470 nM; in series [9], 2820 nM; in series [2] it was 540 nM; in [3], 260 nM; in series [12] it was 2650 nM; in the series on A-431 it was 340 nM. The values for the IC50 in series [4] and in series [5] were 2820 nM and 560 nM, respectively. Moreover, the Activity result in series [8] and in [11] was “Toxic” in each case. Besides, the PPB in [10] was 46.5%. Moreover, the Drug recovery in the series on Plasma came out at 102.1%.

On to `Cc1ccn2c1C(=O)N[C@@H]1[C@H]2C[C@]2(O)[C@H]1NC(=O)N2C`, for which the IC50 with HeLa is more than 20000 nM.

Turning to `Cc1ccc2n1[C@@H]1C[C@]3(O)[C@@H](NC(=O)N3C)[C@@H]1NC2=O`, the IC50 in [1] was more than 1000 nM; in [2] it was 280 nM; with HeLa it was more than 20000 nM; in [3], 310 nM; in the series with A-431, more than 1000 nM; in [4], 9770 nM. The IC50 in series [5] was more than 1000 nM.

In the series with HeLa, `Cc1c(C)c2n(c1Br)[C@@H]1C[C@]3(O)[C@@H](NC(=O)N3C)[C@@H]1NC2=O` gave an IC50 of more than 20000 nM.

On to `C#CCCCO[C@@]12C[C@@H]3[C@@H](NC(=O)c4ccc(Br)n43)[C@@H]1NC(=O)N2C`, for which the IC50 in the series on HeLa is more than 20000 nM; in [4], more than 10000 nM.

Consider `CN1C(=O)c2ccc(Br)n2[C@@H]2C[C@]3(O)[C@@H](NC(=O)N3C)[C@@H]21` (racemic), for which the IC50 in the series on HeLa was more than 20000 nM.

For `CN1C(=O)N[C@H]2[C@@H]3NC(=O)c4ccc(Br)n4[C@@H]3C[C@]21O` [AGELASTATIN A], the IC50 worked out at 380 nM in series [1]; 710 nM in [9]; 320 nM in [2]; 84 nM in the series on HeLa; 170 nM in [3]; 930 nM in series [12]. Moreover, the results for the IC50 (in the series with A-431; in series [4]; in series [5]) were 460 nM, 710 nM and 440 nM, respectively. For the same molecule, the Activity entry in [8] and in series [11] was “Toxic” throughout.
